From patent US20030092004A1 (priority 2001, published 2003)
Entries after “also recorded” stand apart in the source; their conditions may differ. Read-outs that look alike come from different tables or passages of the source.

Assays:
[1] = molecular target: NR1/NR3B receptors (Rattus norvegicus, UniProt P35439+Q8VHN2); assay: Two-electrode voltage-clamp recording of whole-cell currents in Xenopus oocytes injected with NR1 and NR3B cRNA; type: cell-based; conditions: for effect on glycine-evoked NR1/NR3B currents on co-application: doses maximally effective at classical NMDARs
Chain of NR1/NR3B receptors (Q8VHN2 25-1002, other chains not shown): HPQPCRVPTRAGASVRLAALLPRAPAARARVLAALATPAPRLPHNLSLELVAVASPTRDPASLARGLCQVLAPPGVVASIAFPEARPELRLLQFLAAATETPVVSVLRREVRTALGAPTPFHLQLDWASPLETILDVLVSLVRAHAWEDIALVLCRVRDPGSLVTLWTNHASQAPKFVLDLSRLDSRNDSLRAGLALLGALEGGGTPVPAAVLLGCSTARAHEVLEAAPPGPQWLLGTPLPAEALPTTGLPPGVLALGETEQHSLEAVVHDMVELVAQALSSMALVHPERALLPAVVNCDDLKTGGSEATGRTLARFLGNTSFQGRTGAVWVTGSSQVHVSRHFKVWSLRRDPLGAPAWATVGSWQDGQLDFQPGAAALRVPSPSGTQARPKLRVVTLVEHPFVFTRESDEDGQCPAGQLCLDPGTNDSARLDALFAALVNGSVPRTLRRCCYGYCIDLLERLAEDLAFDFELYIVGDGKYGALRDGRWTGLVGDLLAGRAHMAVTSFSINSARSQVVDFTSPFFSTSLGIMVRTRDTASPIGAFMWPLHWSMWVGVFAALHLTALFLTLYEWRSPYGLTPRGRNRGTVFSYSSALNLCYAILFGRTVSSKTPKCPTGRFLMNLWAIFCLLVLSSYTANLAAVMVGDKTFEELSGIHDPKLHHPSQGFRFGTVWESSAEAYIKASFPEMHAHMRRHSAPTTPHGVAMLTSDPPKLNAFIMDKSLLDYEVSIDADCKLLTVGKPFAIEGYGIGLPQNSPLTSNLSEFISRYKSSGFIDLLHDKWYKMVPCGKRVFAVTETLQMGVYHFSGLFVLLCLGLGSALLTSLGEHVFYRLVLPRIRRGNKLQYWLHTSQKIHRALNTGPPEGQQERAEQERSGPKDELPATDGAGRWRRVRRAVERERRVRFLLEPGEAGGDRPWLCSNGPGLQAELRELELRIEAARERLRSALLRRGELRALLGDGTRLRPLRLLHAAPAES
Experimental: Currents were recorded in 1.5 mM Ba^2+ Ringers' solution from oocytes injected with 2 ng of NR1 cRNA and 12 ng of NR3B cRNA.
NR3B cRNA for oocyte expression was produced as follows. The full-length NR3B cDNA was constructed in the pCMV6-XL4 vector (OriGene Technologies, Inc., Rockville, Md.), which contains a T7 promoter upstream of the cDNA insert. […] The truncated cRNA could potentially encode a dominant negative form of NR3B. Therefore, a new vector was constructed to facilitate production of exclusively full-length NR3B cRNA. Construction of this vector proceeded as follows. NR1 cDNA was excised from the pGEM-HE/NR1 vector (a gift from S. F. Heinemann) by digestion with EcoRI and the two ends of the truncated pGEM-HE vector were re-ligated. The truncated pGEM-HE vector retained the 5′ and 3′ UTRs of the X. laevis β-globin gene for high level protein expression in frog oocytes. The SfoI-KpnI fragment of truncated pGEM-HE, which contains the T7 promoter, was replaced with the PvuII-KpnI fragment of pBluescript II KS, which contains the T3 promoter, to generate pJC32. The abbreviated multiple cloning site of pJC32 was then replaced with the multiple cloning site from pcDNA3.1(+) (Invitrogen, Carlsbad, Calif.) by ligating the 102 bp PmeI fragment of pcDNA3.1(+) into the 3 kb SmaI-EcoRV fragment of pJC32 to generate pJC34. Oligos encoding restriction sites for AscI, PacI, and PmeI (ctagc[…]g (SEQ ID NO:52) and ctagc[…]g (SEQ ID NO:53)) were annealed and ligated into the NheI site of pJC34. The resulting vector, pJC39, contains three rare restriction sites downstream of the multiple cloning site to facilitate linearization prior to in vitro transcription using T3 RNA polymerase.
The full-length NR3B (B4 form) cDNA was then excised from pCMV6-XL4 by digestion with EcoRI and XbaI, and the 3.2 kb fragment was ligated into EcoRI/XbaI-digested pJC39. The resulting vector, pJC42, was linearized with PmeI, and in vitro transcription was performed using the mMessage mMachine T3 kit (Ambion, Inc., Austin, Tex.) according to the manufacturer's instructions.
Micropipettes were filled with 3M KCl.

[2] = molecular target: NR1/NR3A receptors (Rattus norvegicus, UniProt P35439+Q9R1M7); assay: Two-electrode voltage recording of glycine-evoked currents in oocytes injected with NR1 and NR3A subunits
Chain of NR1/NR3A receptors (Q9R1M7 24-1135, other chains not shown): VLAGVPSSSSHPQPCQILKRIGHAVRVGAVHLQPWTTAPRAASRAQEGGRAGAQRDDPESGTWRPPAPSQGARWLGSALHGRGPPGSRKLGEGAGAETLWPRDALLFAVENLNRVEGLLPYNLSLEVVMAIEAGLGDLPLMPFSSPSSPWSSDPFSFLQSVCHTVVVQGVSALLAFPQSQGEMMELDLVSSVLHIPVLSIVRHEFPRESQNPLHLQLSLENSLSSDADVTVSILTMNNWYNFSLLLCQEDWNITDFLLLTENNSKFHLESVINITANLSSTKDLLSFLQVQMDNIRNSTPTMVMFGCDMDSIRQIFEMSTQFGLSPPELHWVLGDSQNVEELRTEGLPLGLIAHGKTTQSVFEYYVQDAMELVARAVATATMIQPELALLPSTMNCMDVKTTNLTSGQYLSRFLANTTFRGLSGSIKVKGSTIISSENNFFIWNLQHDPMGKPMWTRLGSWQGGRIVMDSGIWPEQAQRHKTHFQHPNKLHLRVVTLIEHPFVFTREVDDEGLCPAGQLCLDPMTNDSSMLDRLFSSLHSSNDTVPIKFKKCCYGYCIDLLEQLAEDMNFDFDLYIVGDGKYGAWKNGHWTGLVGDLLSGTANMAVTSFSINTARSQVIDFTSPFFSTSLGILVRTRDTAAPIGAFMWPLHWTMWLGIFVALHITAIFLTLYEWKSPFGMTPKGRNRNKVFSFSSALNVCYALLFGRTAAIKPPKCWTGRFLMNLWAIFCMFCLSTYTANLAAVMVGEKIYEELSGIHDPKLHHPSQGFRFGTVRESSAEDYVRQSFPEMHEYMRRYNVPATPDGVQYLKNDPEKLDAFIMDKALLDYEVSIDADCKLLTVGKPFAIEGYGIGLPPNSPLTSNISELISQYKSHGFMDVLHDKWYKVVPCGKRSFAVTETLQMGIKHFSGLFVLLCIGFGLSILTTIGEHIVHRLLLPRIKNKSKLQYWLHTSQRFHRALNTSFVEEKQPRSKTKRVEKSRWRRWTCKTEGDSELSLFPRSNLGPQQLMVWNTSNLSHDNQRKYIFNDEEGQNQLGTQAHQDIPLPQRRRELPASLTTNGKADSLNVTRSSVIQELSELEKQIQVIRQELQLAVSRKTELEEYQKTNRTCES
Experimental: Microinjection of oocytes and electrophysiological recordings were performed as follows. Physiological and pharmacological properties of NMDA receptor subunits were characterized in the X. laevis oocyte expression system. […] X. laevis oocytes were harvested and defolliculated by digestion with collagenase (2 mg/ml) for 2 hrs. Twenty to 40 ng of cRNA were injected into each oocyte using glass pipettes with a tip size of 20-40 μm in diameter. Electrophysiological recordings were performed from whole oocytes 2-7 days after injection using a dual-electrode voltage-clamp amplifier (Model OC-725A, Warner Instrument, Hamden, Conn.). Micropipettes were filled with 3M KCl. The bath solution contained 115 mM NaCl, 2.5 mM KCl, 1.5 mM BaCl2, and 10 mM Hepes at pH 7.4. Drugs were applied to oocytes via a rapid perfusion system. Data were collected at 2.2 to 11.1 Hz at room temperature using the MacLab/4e A/D converter (AD Instruments, Mountain View, Calif.). Data analysis was performed using the programs Chart (AD Instruments, Mountain View, Calif.) and Microsoft Excel.

[3] = molecular target: NR1/NR2A receptors (Rattus norvegicus, UniProt P35439+Q00959); assay: Two-electrode voltage-clamp recording of NMDA plus glycine-evoked currents in Xenopus oocytes expressing NR1/NR2A; type: cell-based; conditions: for effect on NR1/NR2A currents: 100 μM NMDA plus 10 μM glycine
Chain of NR1/NR2A receptors (Q00959 20-1464 limits assumed, other chains not shown): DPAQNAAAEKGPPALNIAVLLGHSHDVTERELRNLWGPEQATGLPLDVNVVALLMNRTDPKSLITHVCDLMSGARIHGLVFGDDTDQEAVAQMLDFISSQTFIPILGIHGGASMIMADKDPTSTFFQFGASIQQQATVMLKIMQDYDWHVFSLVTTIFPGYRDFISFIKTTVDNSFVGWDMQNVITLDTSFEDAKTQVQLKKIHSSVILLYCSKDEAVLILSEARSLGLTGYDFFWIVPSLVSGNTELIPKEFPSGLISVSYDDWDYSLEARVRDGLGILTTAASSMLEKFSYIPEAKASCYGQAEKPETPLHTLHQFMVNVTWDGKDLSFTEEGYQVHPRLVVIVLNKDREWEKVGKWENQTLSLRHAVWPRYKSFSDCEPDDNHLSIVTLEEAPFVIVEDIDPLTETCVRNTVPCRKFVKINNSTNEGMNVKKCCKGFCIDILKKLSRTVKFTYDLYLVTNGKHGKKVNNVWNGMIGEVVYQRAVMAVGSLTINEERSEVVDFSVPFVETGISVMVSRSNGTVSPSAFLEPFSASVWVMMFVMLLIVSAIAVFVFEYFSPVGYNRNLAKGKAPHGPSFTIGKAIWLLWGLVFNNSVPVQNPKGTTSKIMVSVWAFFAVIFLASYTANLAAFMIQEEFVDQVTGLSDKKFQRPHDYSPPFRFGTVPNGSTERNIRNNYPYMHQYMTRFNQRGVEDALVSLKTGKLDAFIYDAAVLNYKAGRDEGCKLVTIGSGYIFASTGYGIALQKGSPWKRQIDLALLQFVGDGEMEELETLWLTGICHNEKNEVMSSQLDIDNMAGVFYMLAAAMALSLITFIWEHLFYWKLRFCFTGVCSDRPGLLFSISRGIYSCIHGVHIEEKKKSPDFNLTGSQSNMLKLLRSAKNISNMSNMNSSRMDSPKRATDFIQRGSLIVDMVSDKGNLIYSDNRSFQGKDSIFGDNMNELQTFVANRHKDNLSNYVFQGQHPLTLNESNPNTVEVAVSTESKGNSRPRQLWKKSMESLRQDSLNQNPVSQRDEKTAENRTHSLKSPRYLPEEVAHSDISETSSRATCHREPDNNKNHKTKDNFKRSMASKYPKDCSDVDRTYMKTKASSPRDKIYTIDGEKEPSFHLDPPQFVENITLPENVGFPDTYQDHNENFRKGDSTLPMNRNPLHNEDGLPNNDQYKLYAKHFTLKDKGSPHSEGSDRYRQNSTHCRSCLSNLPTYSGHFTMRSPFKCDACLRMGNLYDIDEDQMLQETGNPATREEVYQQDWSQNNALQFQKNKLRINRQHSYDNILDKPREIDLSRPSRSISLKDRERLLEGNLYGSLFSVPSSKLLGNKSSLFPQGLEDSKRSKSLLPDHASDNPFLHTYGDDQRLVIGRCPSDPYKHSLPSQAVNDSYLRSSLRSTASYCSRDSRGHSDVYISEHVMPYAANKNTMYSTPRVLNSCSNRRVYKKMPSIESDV
Experimental: Microinjection of oocytes and electrophysiological recordings were performed as follows. Physiological and pharmacological properties of NMDA receptor subunits were characterized in the X. laevis oocyte expression system. Full-length cDNAs encoding NMDA receptor subunits were linearized and used as templates for synthesis of cRNA by in vitro transcription using T3 or T7 RNA polymerase (Ambion, Inc., Austin, Tex.). The DNA template was removed by DNase I digestion, and the RNA was purified by phenol/chloroform extraction and ethanol precipitation. The RNA was resuspended in water at 1 μg/μl and stored in −80° C. freezer until use. X. laevis oocytes were harvested and defolliculated by digestion with collagenase (2 mg/ml) for 2 hrs. Twenty to 40 ng of cRNA were injected into each oocyte using glass pipettes with a tip size of 20-40 μm in diameter. […] Micropipettes were filled with 3M KCl. […] Drugs were applied to oocytes via a rapid perfusion system. Data were collected at 2.2 to 11.1 Hz at room temperature using the MacLab/4e A/D converter (AD Instruments, Mountain View, Calif.). Data analysis was performed using the programs Chart (AD Instruments, Mountain View, Calif.) and Microsoft Excel.

[4] = concentration of compound not given or dose-dependent
[5] = no glutamate/NMDA, 1.5 mM Ba2+ Ringers' solution

SMILES: CN[C@H](CC(=O)O)C(=O)O [NMDA, N-methyl-D-aspartate]
- NR1/NR3B current evoked by compound applied alone [1]: little or no effect
- effect on glycine-evoked NR1/NR3B currents [1]: little or no effect; also recorded: does not potentiate

SMILES: N[C@@H](CCC(=O)O)C(=O)O [glutamate]
- effect on NR1/NR3B currents evoked by glycine [1]: have little effect or only slightly potentiate the current

SMILES: O=C(O)c1cc(=O)c2c(Cl)cc(Cl)cc2[nH]1 [5,7-dichlorokynurenic acid]
- effect on glycine-evoked NR1/NR3A currents ([2]; listed as 5, 7-di-Cl-Kynurenate): effectively blocked
- effect on glycine-evoked NR1/NR3A currents ([2]; listed as 5,7-dichlorokynurenate): blocked
- effect on glycine-evoked NR1/NR3B currents [1, 4]: completely inhibits
- effect on glycine-evoked NR1/NR3B currents ([1]; concentration of compound not given or dose-dependent, listed as 5, 7-di-Cl-Kynurenate): blocks
- effect on glycine-evoked NR1/NR3B currents ([1]; concentration of compound not given or dose-dependent, listed as 5,7-dichlorokynurenate): completely abolished

SMILES: CC12CC3CC(C)(C1)CC(N)(C3)C2 [Memantine]
- effect on NR1/NR2A currents ([3]; compound 12 μM): completely blocks

SMILES: C[C@]12N[C@H](Cc3ccccc31)c1ccccc12 [MK801]
- effect on glycine-evoked NR1/NR3A currents [2]: not only failed to block glycine-evoked currents of NR1/NR3A receptors, but actually potentiated these currents; also recorded: potentiates
- effect on glycine-evoked NR1/NR3B currents [1]: does not block and in fact appears to slightly potentiate
- sensitivity of NR1/NR3B receptors to channel blocker compared to NR1/NR2A (NR2-containing) receptors [1]: drastically less sensitive
- effect on NR1/NR2A currents ([3]; compound 10 μM): complete blockade

SMILES: N[C@@H](CS)C(=O)O [L-cysteine]
- effect on NR1/NR3B currents evoked by glycine ([1]; compound 50 μM, 5 μM glycine): have little effect or only slightly potentiate the current
- effect on glycine-evoked NR1/NR3B currents [1, 4]: slightly potentiated

SMILES: N[C@H](CO)C(=O)O [D-serine]
- effect on glycine-evoked NR1/NR3A currents [2]: effectively blocked
- effect on glycine-evoked NR1/NR3B currents on co-application ([1]; 10 μM glycine): produces relative inhibition
- effect on glycine-evoked NR1/NR3B currents [1, 4]: dose-dependently inhibits currents; also recorded: inhibited; also recorded: inhibits glycine-evoked responses in a dose-dependent fashion
- NR1/NR3B current evoked by compound applied alone [1, 5]: evokes small NR1/NR3B currents alone

SMILES: NC(CCCP(=O)(O)O)C(=O)O (stereo not shown) [APV, 2-amino-5-phosphonovalerate]
- effect on glycine-evoked NR1/NR3A currents [2]: blocked the current only slightly
- effect on glycine-evoked NR1/NR3B currents [1]: little or no effect; also recorded: has little effect
- effect on glycine-induced NR1/NR3B current [1]: actually potentiated glycine-evoked current somewhat; also recorded: did not block the glycine-induced current, and actually potentiated the current
- effect on NR1/NR2A currents ([3]; compound 10 μM): blocks

SMILES: NC1(C(=O)O)CC1 [ACPC]
- effect on glycine-evoked NR1/NR3B currents on co-application ([1]; 10 μM glycine): produces relative inhibition
- effect on glycine-evoked NR1/NR3B currents [1, 4]: inhibited
- NR1/NR3B current evoked by compound applied alone [1, 5]: does not evoke detectable NR1/NR3B currents
- NR1/NR2A currents on co-application with NMDA (co-agonist activity) ([3]; co-applied with 100 μM NMDA): evokes NR1/NR2A currents

SMILES: [Mg+2] [Mg^2+]
- effect on glycine-evoked NR1/NR3A currents [2]: no inhibitory effect
- effect on glycine-evoked NR1/NR3A currents ([2]; higher glycine levels): potentiates peak currents without affecting the steady state current
- effect on glycine-evoked NR1/NR3A currents ([2]; low glycine levels): not only failed to block glycine-evoked currents of NR1/NR3A receptors, but actually potentiated these currents; also recorded: actually potentiates
- sensitivity of NR1/NR3B receptors to channel blocker compared to NR1/NR2A (NR2-containing) receptors ([1]; comparison with NR2 subunit-containing receptors): drastically less sensitive; also recorded: much less potently
- effect on glycine-induced NR1/NR3B current ([1]; compound 0.5 mM, 10 μM glycine, holding potential −60 mV): had no effect
- effect on glycine-evoked NR1/NR3B currents [1, 4]: weakly inhibits
- effect on NR1/NR2A currents ([3]; compound 0.1 mM): inhibition
